Experimental data taken from patent publication US8791102B2, “Acetanilide sphingosine-1-phosphate receptor antagonists” (Exelixis, Inc., priority 2008, dated 2014).

Each compound was assayed against T1, human S1P1 receptors (Homo sapiens, UniProt P21453) (assay: S1P1R antagonist assay (fluorescent membrane potential dye, cAMP readout)). Settings: HEK293 cells expressing human S1P1 receptors and CNG channel; 500 nM NECA; S1P1R agonist 10 nM; 90 minutes; read-out: EC50 or IC50 value.
T1 construct: host or cells: HEK293
T1 sequence (P21453 whole entry): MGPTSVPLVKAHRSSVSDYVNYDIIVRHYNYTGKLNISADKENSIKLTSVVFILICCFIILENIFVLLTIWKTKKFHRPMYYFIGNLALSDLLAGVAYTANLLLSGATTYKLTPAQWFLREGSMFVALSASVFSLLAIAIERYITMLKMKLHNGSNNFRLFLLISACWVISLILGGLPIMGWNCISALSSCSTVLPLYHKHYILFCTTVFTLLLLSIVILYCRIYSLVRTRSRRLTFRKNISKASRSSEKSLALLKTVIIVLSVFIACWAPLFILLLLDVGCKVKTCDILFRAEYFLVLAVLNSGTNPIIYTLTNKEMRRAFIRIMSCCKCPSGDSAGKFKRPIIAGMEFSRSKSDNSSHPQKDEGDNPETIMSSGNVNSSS
Type: cell-based
In the case of `O=C(COc1ccccc1)NC(COCc1ccccc1)C(=O)Nc1ccc(Oc2ccccc2)cc1` (stereo not shown) [Compound 289, N-(2-oxo-1-{[(phenylmethyl)oxy]methyl}-2-{[4-(phenyloxy)phenyl]amino}ethyl)phenoxyacetamide], the IC50 is reported as > 1000 nM.
For `O=C(NC(COCc1ccccc1)C(=O)Nc1ccc(Oc2ccccc2)cc1)c1cccnc1Oc1ccccc1` (stereo not shown) [Compound 290, N-(2-oxo-1-{[(phenylmethyl)oxy]methyl}-2-{[4-(phenyloxy)phenyl]amino}ethyl)-2-(phenyloxy)pyridine-3-carboxamide], the IC50 was > 1000 nM.
For `COc1cc(C(=O)NC(COCc2ccccc2)C(=O)Nc2ccc(Oc3ccccc3)cc2)cc(OC)c1OC` (stereo not shown) [Compound 291, 3,4,5-tris(methyloxy)-N-(2-oxo-1-{[(phenylmethyl)oxy]methyl}-2-{[4-(phenyloxy)phenyl]amino}ethyl)benzamide], the IC50 was > 1000 nM.
`O=C(NC(COCc1ccccc1)C(=O)Nc1ccc(Oc2ccccc2)cc1)c1cccs1` (stereo not shown) [Compound 292, N-(2-oxo-1-{[(phenylmethyl)oxy]methyl}-2-{[4-(phenyloxy)phenyl]amino}ethyl)thiophene-2-carboxamide] was tested, and the IC50 was > 1000 nM.
With `O=C(Cc1cccs1)NC(COCc1ccccc1)C(=O)Nc1ccc(Oc2ccccc2)cc1` (stereo not shown) [Compound 293, N-(2-oxo-1-{[(phenylmethyl)oxy]methyl}-2-{[4-(phenyloxy)phenyl]amino}ethyl)thien-2-ylacetamide] the IC50 was > 1000 nM.
With `CN(C)c1ccc(C(=O)NC(COCc2ccccc2)C(=O)Nc2ccc(Oc3ccccc3)cc2)cc1` (stereo not shown) [Compound 294, 4-(dimethylamino)-N-(2-oxo-1-{[(phenylmethyl)oxy]methyl}-2-{[4-(phenyloxy)phenyl]amino}ethyl)benzamide] the IC50 was > 1000 nM.
For `CCCCCC(=O)NC(COCc1ccccc1)C(=O)Nc1ccc(Oc2ccccc2)cc1` (stereo not shown) [Compound 295, N-(2-oxo-1-{[(phenylmethyl)oxy]methyl}-2-{[4-(phenyloxy)phenyl]amino}ethyl)hexanamide], the IC50 was > 1000 nM.
With `O=C(NC(COCc1ccccc1)C(=O)Nc1ccc(Oc2ccccc2)cc1)c1cccnc1Cl` (stereo not shown) [Compound 296, 2-chloro-N-(2-oxo-1-{[(phenylmethyl)oxy]methyl}-2-{[4-(phenyloxy)phenyl]amino}ethyl)pyridine-3-carboxamide] the IC50 was > 1000 nM.
For `O=C(NC(COCc1ccccc1)C(=O)Nc1ccc(Oc2ccccc2)cc1)c1sc2ccccc2c1Cl` (stereo not shown) [Compound 297, 3-chloro-N-(2-oxo-1-{[(phenylmethyl)oxy]methyl}-2-{[4-(phenyloxy)phenyl]amino}ethyl)-1-benzothiophene-2-carboxamide], the IC50 was > 1000 nM.
`C=CCCC(=O)NC(COCc1ccccc1)C(=O)Nc1ccc(Oc2ccccc2)cc1` (stereo not shown) [Compound 298, N-(2-oxo-1-{[(phenylmethyl)oxy]methyl}-2-{[4-(phenyloxy)phenyl]amino}ethyl)pent-4-enamide] was tested, and the IC50 was > 1000 nM.
`O=C(NC(COCc1ccccc1)C(=O)Nc1ccc(Oc2ccccc2)cc1)c1cccc(Cl)c1F` (stereo not shown) [Compound 299, 3-chloro-2-fluoro-N-(2-oxo-1-{[(phenylmethyl)oxy]methyl}-2-{[4-(phenyloxy)phenyl]amino}ethyl)benzamide] was tested, and the IC50 was > 1000 nM.
With `O=C(CCCc1ccccc1)NC(COCc1ccccc1)C(=O)Nc1ccc(Oc2ccccc2)cc1` (stereo not shown) [Compound 300, N-(2-oxo-1-{[(phenylmethyl)oxy]methyl}-2-{[4-(phenyloxy)phenyl]amino}ethyl)-4-phenylbutanamide] the IC50 was > 1000 nM.
In the case of `O=C(Cc1ccccc1Br)NC(COCc1ccccc1)C(=O)Nc1ccc(Oc2ccccc2)cc1` (stereo not shown) [Compound 301, N-(2-oxo-1-{[(phenylmethyl)oxy]methyl}-2-{[4-(phenyloxy)phenyl]amino}ethyl)-2-bromophenylacetamide], the IC50 is reported as 300 to 1000 nM.
`O=C(NC(COCc1ccccc1)C(=O)Nc1ccc(Oc2ccccc2)cc1)C1CCN(c2nccc(C(F)(F)F)n2)CC1` (stereo not shown) [Compound 302, N-(2-oxo-1-{[(phenylmethyl)oxy]methyl}-2-{[4-(phenyloxy)phenyl]amino}ethyl)-1-[4-(trifluoromethyl)pyrimidin-2-yl]piperidine-4-carboxamide] was tested, and the IC50 was > 1000 nM.
For `COCCOCC(=O)NC(COCc1ccccc1)C(=O)Nc1ccc(Oc2ccccc2)cc1` (stereo not shown) [Compound 303, N-(2-oxo-1-{[(phenylmethyl)oxy]methyl}-2-{[4-(phenyloxy)phenyl]amino}ethyl)-2-methoxyethoxyacetamide], the IC50 was 300 to 1000 nM.
With `COc1ccc(CCC(=O)NC(COCc2ccccc2)C(=O)Nc2ccc(Oc3ccccc3)cc2)cc1` (stereo not shown) [Compound 304, N-(2-oxo-1-{[(phenylmethyl)oxy]methyl}-2-{[4-(phenyloxy)phenyl]amino}ethyl)-3-(4-methoxyphenyl)propanamide] the IC50 was > 1000 nM.
`CC(=O)Nc1nc(C)c(S(=O)(=O)NC(COCc2ccccc2)C(=O)Nc2ccc(Oc3ccccc3)cc2)s1` (stereo not shown) [Compound 305, N-(2-oxo-1-{[(phenylmethyl)oxy]methyl}-2-{[4-(phenyloxy)phenyl]amino}ethyl)-2-acetylamino-4-methylthiazol-5-ylsulfonamide] was tested, and the IC50 was ≤ 300 nM.
`CSc1ccc(C(=O)NC(COCc2ccccc2)C(=O)Nc2ccc(Oc3ccccc3)cc2)cc1` (stereo not shown) [Compound 306, 4-(methylthio)-N-(2-oxo-1-{[(phenylmethyl)oxy]methyl}-2-{[4-(phenyloxy)phenyl]amino}ethyl)benzamide] was tested, and the IC50 was > 1000 nM.
`CSCC(=O)NC(COCc1ccccc1)C(=O)Nc1ccc(Oc2ccccc2)cc1` (stereo not shown) [Compound 307, N-(2-oxo-1-{[(phenylmethyl)oxy]methyl}-2-{[4-(phenyloxy)phenyl]amino}ethyl)-2-(methylthio)acetamide] was tested, and the IC50 was ≤ 300 nM.
With `COc1ccc(F)cc1C(=O)NC(COCc1ccccc1)C(=O)Nc1ccc(Oc2ccccc2)cc1` (stereo not shown) [Compound 308, 5-fluoro-2-(methyloxy)-N-(2-oxo-1-{[(phenylmethyl)oxy]methyl}-2-{[4-(phenyloxy)phenyl]amino}ethyl)benzamide] the IC50 was > 1000 nM.
For `COc1ccc(C(=O)NC(COCc2ccccc2)C(=O)Nc2ccc(Oc3ccccc3)cc2)c(C)c1` (stereo not shown) [Compound 309, 2-methyl-4-(methyloxy)-N-(2-oxo-1-{[(phenylmethyl)oxy]methyl}-2-{[4-(phenyloxy)phenyl]amino}ethyl)benzamide], the IC50 was > 1000 nM.
In the case of `CC(=O)CCCC(=O)NC(COCc1ccccc1)C(=O)Nc1ccc(Oc2ccccc2)cc1` (stereo not shown) [Compound 310, 5-oxo-N-(2-oxo-1-{[(phenylmethyl)oxy]methyl}-2-{[4-(phenyloxy)phenyl]amino}ethyl)hexanamide], the IC50 is reported as > 1000 nM.
For `Cc1cc(Br)ccc1C(=O)NC(COCc1ccccc1)C(=O)Nc1ccc(Oc2ccccc2)cc1` (stereo not shown) [Compound 311, 4-bromo-2-methyl-N-(2-oxo-1-{[(phenylmethyl)oxy]methyl}-2-{[4-(phenyloxy)phenyl]amino}ethyl)benzamide], the IC50 was > 1000 nM.
In the case of `O=C(CCC(=O)c1cccs1)NC(COCc1ccccc1)C(=O)Nc1ccc(Oc2ccccc2)cc1` (stereo not shown) [Compound 312, 4-oxo-N-(2-oxo-1-{[(phenylmethyl)oxy]methyl}-2-{[4-(phenyloxy)phenyl]amino}ethyl)-4-(2-thienyl)butanamide], the IC50 is reported as > 1000 nM.
For `O=C(CSc1ccccc1)NC(COCc1ccccc1)C(=O)Nc1ccc(Oc2ccccc2)cc1` (stereo not shown) [Compound 313, N-(2-oxo-1-{[(phenylmethyl)oxy]methyl}-2-{[4-(phenyloxy)phenyl]amino}ethyl)-2-(phenylthio)acetamide], the IC50 was 300 to 1000 nM.
In the case of `O=C(NC(COCc1ccccc1)C(=O)Nc1ccc(Oc2ccccc2)cc1)c1ccccc1-n1cccc1` (stereo not shown) [Compound 314, N-(2-oxo-1-{[(phenylmethyl)oxy]methyl}-2-{[4-(phenyloxy)phenyl]amino}ethyl)-2-(1H-pyrrol-1-yl)benzamide], the IC50 is reported as > 1000 nM.
In the case of `COCCOCCOCC(=O)NC(COCc1ccccc1)C(=O)Nc1ccc(Oc2ccccc2)cc1` (stereo not shown) [Compound 315, N-(2-oxo-1-{[(phenylmethyl)oxy]methyl}-2-{[4-(phenyloxy)phenyl]amino}ethyl)-2-[2-(methoxy)ethoxy]ethoxyacetamide], the IC50 is reported as > 1000 nM.
For `COc1cc(OC)cc(C(=O)NC(COCc2ccccc2)C(=O)Nc2ccc(Oc3ccccc3)cc2)c1` (stereo not shown) [Compound 316, 3,5-bis(methyloxy)-N-(2-oxo-1-{[(phenylmethyl)oxy]methyl}-2-{[4-(phenyloxy)phenyl]amino}ethyl)benzamide], the IC50 was > 1000 nM.
In the case of `O=C(CCC1CCCCC1)NC(COCc1ccccc1)C(=O)Nc1ccc(Oc2ccccc2)cc1` (stereo not shown) [Compound 317, N-(2-oxo-1-{[(phenylmethyl)oxy]methyl}-2-{[4-(phenyloxy)phenyl]amino}ethyl)-3-cyclohexylpropanamide], the IC50 is reported as > 1000 nM.
With `O=C(CCCC(=O)c1ccccc1)NC(COCc1ccccc1)C(=O)Nc1ccc(Oc2ccccc2)cc1` (stereo not shown) [Compound 318, 5-oxo-N-(2-oxo-1-{[(phenylmethyl)oxy]methyl}-2-{[4-(phenyloxy)phenyl]amino}ethyl)-5-phenylpentanamide] the IC50 was > 1000 nM.
`CC(=O)c1ccc(OCC(=O)NC(COCc2ccccc2)C(=O)Nc2ccc(Oc3ccccc3)cc2)cc1` (stereo not shown) [Compound 319, N-(2-oxo-1-{[(phenylmethyl)oxy]methyl}-2-{[4-(phenyloxy)phenyl]amino}ethyl)-4-acetylphenoxyacetamide] was tested, and the IC50 was > 1000 nM.
In the case of `COc1ccc(CCCC(=O)NC(COCc2ccccc2)C(=O)Nc2ccc(Oc3ccccc3)cc2)cc1OC` (stereo not shown) [Compound 320, 4-[3,4-bis(methyloxy)phenyl]-N-(2-oxo-1-{[(phenylmethyl)oxy]methyl}-2-{[4-(phenyloxy)phenyl]amino}ethyl)butanamide], the IC50 is reported as > 1000 nM.
In the case of `O=C(NC(COCc1ccccc1)C(=O)Nc1ccc(Oc2ccccc2)cc1)c1ccc(-c2cccc(C(F)(F)F)c2)o1` (stereo not shown) [Compound 321, N-(2-oxo-1-{[(phenylmethyl)oxy]methyl}-2-{[4-(phenyloxy)phenyl]amino}ethyl)-5-[3-(trifluoromethyl)phenyl]furan-2-carboxamide], the IC50 is reported as > 1000 nM.
For `O=C(CCN1C(=O)c2ccccc2C1=O)NC(COCc1ccccc1)C(=O)Nc1ccc(Oc2ccccc2)cc1` (stereo not shown) [Compound 322, N-(2-oxo-1-{[(phenylmethyl)oxy]methyl}-2-{[4-(phenyloxy)phenyl]amino}ethyl)-3-(1,3-dioxoisoindolin-2-yl)propanamide], the IC50 was > 1000 nM.
